Where a name gives a salt, the structure may show the parent alone.
Assays:
aortic blood flow = assay: Effects on aortic blood flow; format: in vivo, mongrel adult dogs
Procedure, shortened: (§1)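 Open-chest, pentobarbital-anesthetized mongrel dogs (male and female, about 10 kg) received compounds intravenously via the brachial vein; vehicles were 0.2% CMC suspension, HCl solution (pH 6) or physiological saline. Mean arterial pressure came from a carotid-aortic cannula transducer, aortic flow from an electromagnetic flowmeter at the aortic root.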

[1] = system: coronary sinus oxygen tension; assay: Effects on coronary sinus oxygen tension; format: in vivo, mongrel adult dogs
Procedure, shortened: (§2)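 Dog, mongrel, ~10 kg, thoracotomized, pentobarbital anesthesia. Dosing i.v. (brachial), vehicle CMC 0.2%, HCl pH 6 or saline. Coronary sinus outflow by electromagnetic flowmeter, coronary sinus pO2 by macro electrode, both via Morawitz cannulation.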

heart rate = assay: Effects on heart rate; format: in vivo, mongrel adult dogs
Procedure, shortened: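 Adult mongrel dogs of both sexes were anesthetized with pentobarbital and thoracotomized. Test agents, suspended or dissolved in 0.2% CMC, pH 6 HCl solution or saline, were injected intravenously into the brachial vein. Hemodynamic and coronary sinus parameters were then recorded.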

[2] = system: arterial mean blood pressure; assay: Effects on arterial mean blood pressure; format: in vivo, mongrel adult dogs
Procedure, shortened: as §1

coronary sinus out flow = assay: Effects on coronary sinus out flow; format: in vivo, mongrel adult dogs
Procedure, shortened: as §2

coronary blood flow = details: marketed antianginal drug; cited from earlier work

COc1ccc(CN2CCNCC2)c(OC)c1OC [Vastarel F, 2,3,4-trimethoxybenzylpiperazine dihydrochloride, reference compound]
+5.0%: Changes (%) of basal values, aortic blood flow (aortic blood flow; 2.0 mg/kg i.v., 20 min) | Changes (%) of basal values, aortic blood flow (aortic blood flow; 2.0 mg/kg i.v., 30 min) | Changes(%) of basal values, coronary sinus oxygen tension ([1]; 2.0 mg/kg i.v., 10 min)
-0.5%: Changes(%) of basal values, heart rate (heart rate; 0.6 mg/kg i.v., 5 min)
+9.0%: Changes(%) of basal values, coronary sinus oxygen tension ([1]; 0.6 mg/kg i.v., imm.) | Changes(%) of basal values, coronary sinus out flow (coronary sinus out flow; 2.0 mg/kg i.v., 10 min)
-78.0%: Changes (%) of basal values, aortic blood flow (aortic blood flow; 2.0 mg/kg i.v., imm.)
+1.0%: Changes(%) of basal values, coronary sinus oxygen tension ([1]; 0.2 mg/kg i.v., 1 min) | Changes(%) of basal values, coronary sinus oxygen tension ([1]; 0.6 mg/kg i.v., 5 min) | Changes(%) of basal values, coronary sinus out flow (coronary sinus out flow; 0.2 mg/kg i.v., 1 min)
+0.5%: Changes (%) of basal values, aortic blood flow (aortic blood flow; 0.6 mg/kg i.v., 1 min) | Changes(%) of basal values, heart rate (heart rate; 0.6 mg/kg i.v., 1 min) | Changes(%) of basal values, coronary sinus out flow (coronary sinus out flow; 0.6 mg/kg i.v., 5 min)
-55.0%: Changes (%) of basal values, arterial mean blood pressure ([2]; 2.0 mg/kg i.v., imm.)
depressant effect on the heart: depressant effect on the heart (coronary blood flow)
+4.0%: Changes(%) of basal values, coronary sinus out flow (coronary sinus out flow; 0.2 mg/kg i.v., imm.) | Changes(%) of basal values, coronary sinus out flow (coronary sinus out flow; 2.0 mg/kg i.v., 20 min)
+6.0%: Changes(%) of basal values, coronary sinus out flow (coronary sinus out flow; 0.6 mg/kg i.v., imm.)
+1.5%: Changes (%) of basal values, aortic blood flow (aortic blood flow; 0.6 mg/kg i.v., imm.) | Changes(%) of basal values, coronary sinus oxygen tension ([1]; 2.0 mg/kg i.v., 1 min) | Changes(%) of basal values, heart rate (heart rate; 0.2 mg/kg i.v., imm.) | Changes(%) of basal values, heart rate (heart rate; 0.6 mg/kg i.v., imm.)
+3.0%: Changes(%) of basal values, coronary sinus oxygen tension ([1]; 0.2 mg/kg i.v., imm.) | Changes(%) of basal values, coronary sinus oxygen tension ([1]; 2.0 mg/kg i.v., 20 min) | Changes(%) of basal values, coronary sinus oxygen tension ([1]; 2.0 mg/kg i.v., imm.) | Changes(%) of basal values, coronary sinus out flow (coronary sinus out flow; 2.0 mg/kg i.v., 5 min)
-1.0%: Changes (%) of basal values, aortic blood flow (aortic blood flow; 0.6 mg/kg i.v., 10 min) | Changes (%) of basal values, aortic blood flow (aortic blood flow; 0.6 mg/kg i.v., 20 min) | Changes(%) of basal values, heart rate (heart rate; 0.2 mg/kg i.v., 10 min) | Changes(%) of basal values, heart rate (heart rate; 0.6 mg/kg i.v., 20 min) | Changes (%) of basal values, arterial mean blood pressure ([2]; 0.2 mg/kg i.v., 1 min) | Changes (%) of basal values, arterial mean blood pressure ([2]; 0.6 mg/kg i.v., 10 min) | Changes (%) of basal values, arterial mean blood pressure ([2]; 2.0 mg/kg i.v., 10 min) | Changes (%) of basal values, arterial mean blood pressure ([2]; 2.0 mg/kg i.v., 20 min)
-3.0%: Changes (%) of basal values, arterial mean blood pressure ([2]; 0.2 mg/kg i.v., imm.) | Changes(%) of basal values, coronary sinus out flow (coronary sinus out flow; 2.0 mg/kg i.v., 1 min)
+11.0%: Changes (%) of basal values, aortic blood flow (aortic blood flow; 2.0 mg/kg i.v., 5 min)
-1.5%: Changes(%) of basal values, heart rate (heart rate; 0.2 mg/kg i.v., 5 min) | Changes(%) of basal values, heart rate (heart rate; 2.0 mg/kg i.v., 10 min) | Changes(%) of basal values, heart rate (heart rate; 2.0 mg/kg i.v., 20 min) | Changes(%) of basal values, heart rate (heart rate; 2.0 mg/kg i.v., 30 min) | Changes (%) of basal values, arterial mean blood pressure ([2]; 0.2 mg/kg i.v., 10 min) | Changes (%) of basal values, arterial mean blood pressure ([2]; 0.6 mg/kg i.v., 5 min)
-6.0%: Changes (%) of basal values, arterial mean blood pressure ([2]; 0.6 mg/kg i.v., imm.)
+23.0%: Changes (%) of basal values, aortic blood flow (aortic blood flow; 2.0 mg/kg i.v., 10 min)
-13.0%: Changes(%) of basal values, coronary sinus out flow (coronary sinus out flow; 2.0 mg/kg i.v., imm.)
-2.0%: Changes(%) of basal values, heart rate (heart rate; 2.0 mg/kg i.v., 1 min) | Changes(%) of basal values, heart rate (heart rate; 2.0 mg/kg i.v., 5 min) | Changes (%) of basal values, arterial mean blood pressure ([2]; 0.2 mg/kg i.v., 5 min) | Changes (%) of basal values, arterial mean blood pressure ([2]; 0.6 mg/kg i.v., 1 min) | Changes (%) of basal values, arterial mean blood pressure ([2]; 2.0 mg/kg i.v., 5 min) | Changes (%) of basal values, arterial mean blood pressure ([2]; 2.0 mg/kg i.v., 30 min)
+2.5%: Changes(%) of basal values, coronary sinus out flow (coronary sinus out flow; 0.6 mg/kg i.v., 1 min)
-35.0%: Changes (%) of basal values, arterial mean blood pressure ([2]; 2.0 mg/kg i.v., 1 min)
0%: Changes (%) of basal values, aortic blood flow (aortic blood flow; 0.2 mg/kg i.v., 1 min) | Changes (%) of basal values, aortic blood flow (aortic blood flow; 0.2 mg/kg i.v., 5 min) | Changes (%) of basal values, aortic blood flow (aortic blood flow; 0.2 mg/kg i.v., 10 min) | Changes (%) of basal values, aortic blood flow (aortic blood flow; 0.2 mg/kg i.v., 20 min) | Changes (%) of basal values, aortic blood flow (aortic blood flow; 0.2 mg/kg i.v., 30 min) | Changes (%) of basal values, aortic blood flow (aortic blood flow; 0.2 mg/kg i.v., imm.) | Changes (%) of basal values, aortic blood flow (aortic blood flow; 0.6 mg/kg i.v., 5 min) | Changes (%) of basal values, aortic blood flow (aortic blood flow; 0.6 mg/kg i.v., 30 min) | Changes (%) of basal values, aortic blood flow (aortic blood flow; 2.0 mg/kg i.v., 1 min) | Changes(%) of basal values, coronary sinus oxygen tension ([1]; 0.2 mg/kg i.v., 5 min) | Changes(%) of basal values, coronary sinus oxygen tension ([1]; 0.2 mg/kg i.v., 10 min) | Changes(%) of basal values, coronary sinus oxygen tension ([1]; 0.2 mg/kg i.v., 20 min) | Changes(%) of basal values, coronary sinus oxygen tension ([1]; 0.2 mg/kg i.v., 30 min) | Changes(%) of basal values, coronary sinus oxygen tension ([1]; 0.6 mg/kg i.v., 10 min) | Changes(%) of basal values, coronary sinus oxygen tension ([1]; 0.6 mg/kg i.v., 20 min) | Changes(%) of basal values, coronary sinus oxygen tension ([1]; 0.6 mg/kg i.v., 30 min) | Changes(%) of basal values, coronary sinus oxygen tension ([1]; 2.0 mg/kg i.v., 30 min) | Changes(%) of basal values, heart rate (heart rate; 0.2 mg/kg i.v., 1 min) | Changes(%) of basal values, heart rate (heart rate; 0.2 mg/kg i.v., 20 min) | Changes(%) of basal values, heart rate (heart rate; 0.2 mg/kg i.v., 30 min) | Changes(%) of basal values, heart rate (heart rate; 0.6 mg/kg i.v., 10 min) | Changes(%) of basal values, heart rate (heart rate; 0.6 mg/kg i.v., 30 min) | Changes (%) of basal values, arterial mean blood pressure ([2]; 0.2 mg/kg i.v., 20 min) | Changes (%) of basal values, arterial mean blood pressure ([2]; 0.2 mg/kg i.v., 30 min) | Changes (%) of basal values, arterial mean blood pressure ([2]; 0.6 mg/kg i.v., 20 min) | Changes (%) of basal values, arterial mean blood pressure ([2]; 0.6 mg/kg i.v., 30 min) | Changes(%) of basal values, coronary sinus out flow (coronary sinus out flow; 0.2 mg/kg i.v., 5 min) | Changes(%) of basal values, coronary sinus out flow (coronary sinus out flow; 0.2 mg/kg i.v., 10 min) | Changes(%) of basal values, coronary sinus out flow (coronary sinus out flow; 0.2 mg/kg i.v., 20 min) | Changes(%) of basal values, coronary sinus out flow (coronary sinus out flow; 0.2 mg/kg i.v., 30 min) | Changes(%) of basal values, coronary sinus out flow (coronary sinus out flow; 0.2 mg/kg i.v., 40 min) | Changes(%) of basal values, coronary sinus out flow (coronary sinus out flow; 0.6 mg/kg i.v., 10 min) | Changes(%) of basal values, coronary sinus out flow (coronary sinus out flow; 0.6 mg/kg i.v., 20 min) | Changes(%) of basal values, coronary sinus out flow (coronary sinus out flow; 0.6 mg/kg i.v., 30 min) | Changes(%) of basal values, coronary sinus out flow (coronary sinus out flow; 0.6 mg/kg i.v., 40 min) | Changes(%) of basal values, coronary sinus out flow (coronary sinus out flow; 2.0 mg/kg i.v., 30 min)
3-5%: minimum increase in oxygen tension ([1]; until after 5-20 minutes, i.v.)
+2.0%: Changes(%) of basal values, coronary sinus oxygen tension ([1]; 2.0 mg/kg i.v., 5 min)
+5.5%: Changes(%) of basal values, coronary sinus oxygen tension ([1]; 0.6 mg/kg i.v., 1 min) | Changes(%) of basal values, heart rate (heart rate; 2.0 mg/kg i.v., imm.)

Source: patent publication US4068070A, “α-Cyanoamine compounds and a process for producing the same” (Fuji Chemical Industry Co., Ltd., priority 1974, dated 1978)
